Assay results reported in US20220204512A1, “SUBSTITUTED FUSED BICYCLIC DERIVATIVE, PREPARATION METHOD THEREFOR, AND APPLICATION THEREOF IN MEDICINES” (Jiangsu Hengrui Medicine Co., Ltd., priority 2019, published 2022).

Target: T1, ERK2 (Homo sapiens, UniProt P28482)
T1 construct: purchased R&D 1879-KS-010
Assay: ERK2 enzyme activity test (ADP-Glo Kinase Assay)
Format: biochemical
Details: ADP-Glo chemiluminescence
Method: The purpose of this experiment is to detect the inhibitory ability of the compounds of the present disclosure on the ERK2 enzyme activity, and to evaluate the in vitro activity of the compounds based on the IC50. The ADP-Glo™ Kinase Assay Kit was used in this experiment. The substrate was phosphorylated under the action of the enzyme and ADP was produced at the same time. The ADP-Glo reagent was added to remove the unreacted ATP in the reaction system, and the ADP produced by the reaction was detected with kinase detection reagent. In the presence of the compound, the inhibition rate of the compound was calculated by measuring the signal value.
Preparation of enzyme and substrate: ERK2 (1879-KS-010, R&D) and substrate (custom peptide, Gill Biochemical) were prepared to 0.75 ng/ml and 1500 μM in a buffer (40 mM Tris, 20 mM MgCl2, 0.1 mg/ml BSA, 50 μM DTT), and then the enzyme solution and the substrate solution were prepared into a mixed solution at a volume ratio of 2:1 for later use. ATP was diluted to 500 μM with buffer. The compound was dissolved in DMSO (dimethyl sulfoxide, Shanghai Titan Scientific Co., Ltd.) to prepare a stock solution with an initial concentration of 20 mM, and then Bravo was used to prepare the compound. Finally, 3 μL of a mixed solution of enzyme and substrate, and 1 μL substrate of different concentrations of the compound (the initial concentration is 50 μM, 4-fold dilution) were added to each well of the 384-well plate, and the plate was incubated at 30° C. for 10 minutes, and finally 1 μL 500 μM ATP solution was added to each well, and the plate was incubated at 30° C. for 2 hours. Then 5 μL of ADP-Glo was added, and the plate was incubated at 30° C. for 40 minutes. Then 10 μL of kinase detection buffer was added, and the plate was incubated at 30° C. for 40 minutes. The 384-well plate was taken out and placed in a microplate reader (BMG labtech, PHERAstar FS), and the chemiluminescence was measured by a microplate reader.
Microsoft Excel, Graphpad Prism 5 was used to process and analyze the data.

T1 sequence (P28482 2-360 limits assumed): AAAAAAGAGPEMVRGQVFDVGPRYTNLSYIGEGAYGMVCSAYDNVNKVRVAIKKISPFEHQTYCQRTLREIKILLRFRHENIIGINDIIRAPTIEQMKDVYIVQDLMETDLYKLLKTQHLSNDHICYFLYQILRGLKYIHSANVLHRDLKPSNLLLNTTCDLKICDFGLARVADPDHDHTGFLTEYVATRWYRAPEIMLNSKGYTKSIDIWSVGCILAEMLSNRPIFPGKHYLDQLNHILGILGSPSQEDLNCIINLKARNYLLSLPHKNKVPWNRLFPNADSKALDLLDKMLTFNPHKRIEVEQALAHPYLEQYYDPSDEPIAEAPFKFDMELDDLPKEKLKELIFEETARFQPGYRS

Compound | IC50 [nM]
COc1cc(F)cc([C@@H](CO)NC(=O)[C@H](C)N2CCc3cc(-c4nc(NC5CCOCC5)ncc4Cl)cn3C2=O)c1 [Example 2-P1, (S)-2-(6-(5-Chloro-2-((tetrahydro-2H-pyran-4-yl)amino)pyrimidin-4-yl)-1-oxo-3,4-dihydropyrrolo[1,2-c]pyrimidin-2(1H)-yl)-N-((S)-1-(3-fluoro-5-methoxyphenyl)-2-hydroxyethyl)propanamide] | 336
COc1cc(F)cc([C@@H](CO)NC(=O)[C@H](C)N2CCn3cc(-c4nc(NC5CCOCC5)ncc4Cl)cc3C2=O)c1 [Example 4-P1, (S)-2-(7-(5-Chloro-2-((tetrahydro-2H-pyran-4-yl)amino)pyrimidin-4-yl)-1-oxo-3,4-dihydropyrrolo[1,2-a]pyrazin-2(1H)-yl)-N-((S)-1-(3-fluoro-5-methoxyphenyl)-2-hydroxyethyl)propanamide] | 819
Cc1cccc([C@@H](CO)NC(=O)C(C)N2CCn3cc(-c4nc(NC5CCOCC5)ncc4Cl)nc3C2=O)c1 (stereo partly drawn) [Example 5, 2-(2-(5-Chloro-2-((tetrahydro-2H-pyran-4-yl)amino)pyrimidin-4-yl)-8-oxo-5,6-dihydroimidazo[1,2-a]pyrazin-7(8H)-yl)-N-((S)-2-hydroxy-1-(m-tolyl)ethyl)propanamide] | 3.6
COc1cc(F)cc([C@@H](CO)NC(=O)[C@H](C)N2Cc3cc(-c4nc(NC5CCOCC5)ncc4Cl)cn3C2=O)c1 [Example 6-P1, (S)-2-(6-(5-Chloro-2-((tetrahydro-2H-pyran-4-yl)amino)pyrimidin-4-yl)-3-oxo-1H-pyrrolo[1,2-c]imidazol-2(3H)-yl)-N-((S)-1-(3-fluoro-5-methoxyphenyl)-2-hydroxyethyl)propanamide] | 2540
Cc1cccc([C@@H](CO)NC(=O)[C@H](C)N2CCc3cc(-c4nc(NC5CCOCC5)ncc4Cl)cn3C2=O)c1 [Example 11-P1, (S)-2-(6-(5-Chloro-2-((tetrahydro-2H-pyran-4-yl)amino)pyrimidin-4-yl)-1-oxo-3,4-dihydropyrrolo[1,2-c]pyrimidin-2(1H)-yl)-N-((S)-2-hydroxy-1-(m-tolyl)ethyl)propanamide] | 75
COc1cc(F)cc([C@@H](CO)NC(=O)[C@H](C)N2CCn3cc(-c4nc(N[C@@H](C)CO)ncc4Cl)nc3C2=O)c1 [Example 14-P1, (S)-2-(2-(5-Chloro-2-(((S)-1-hydroxypropan-2-yl)amino)pyrimidin-4-yl)-8-oxo-5,6-dihydroimidazo[1,2-a]pyrazin-7(8H)-yl)-N-((S)-1-(3-fluoro-5-methoxyphenyl)-2-hydroxyethyl)propanamide] | 1530
COc1cc(F)cc([C@@H](CO)NC(=O)[C@@H](C)N2CCn3cc(-c4nc(N[C@@H](C)CO)ncc4Cl)nc3C2=O)c1 [Example 14-P2, (R)-2-(2-(5-Chloro-2-(((S)-1-hydroxypropan-2-yl)amino)pyrimidin-4-yl)-8-oxo-5,6-dihydroimidazo[1,2-a]pyrazin-7(8H)-yl)-N-((S)-1-(3-fluoro-5-methoxyphenyl)-2-hydroxyethyl)propanamide] | 4.9
Cc1cccc([C@@H](CO)NC(=O)[C@@H](C)N2CCn3cc(-c4ccnc(Nc5ccnn5C)n4)cc3C2=O)c1 [Example 18-P2, (R)-N-((S)-2-Hydroxy-1-(m-tolyl)ethyl)-2-(7-(2-((1-methyl-1H-pyrazol-5-yl)amino)pyrimidin-4-yl)-1-oxo-3,4-dihydropyrrolo[1,2-a]pyrazin-2(1H)-yl)propanamide] | 5.5

Results, then the compound that gave them:

IC50 [nM] | Compound
811 | COc1cc(F)cc([C@@H](CO)NC(=O)[C@H](C)N2CCc3cc(-c4nc(Nc5ccnn5C)ncc4C)cn3C2=O)c1 [Example 1-P1, (S)-N-((S)-1-(3-Fluoro-5-methoxyphenyl)-2-hydroxyethyl)-2-(6-(5-methyl-2-((1-methyl-1H-pyrazol-5-yl)amino)pyrimidin-4-yl)-1-oxo-3,4-dihydropyrrolo[1,2-c]pyrimidin-2(1H)-yl)propanamide]
2120 | COc1cc(F)cc([C@@H](CO)NC(=O)[C@H](C)N2Cc3cc(-c4nc(Nc5ccnn5C)ncc4C)cn3C2=O)c1 [Example 8-P1, (S)-N-((S)-1-(3-Fluoro-5-methoxyphenyl)-2-hydroxyethyl)-2-(6-(5-methyl-2-((1-methyl-1H-pyrazol-5-yl)amino)pyrimidin-4-yl)-3-oxo-1H-pyrrolo[1,2-c]imidazol-2(3H)-yl)propanamide]
26 | COc1cc(F)cc([C@@H](CO)NC(=O)[C@@H](C)N2Cc3cc(-c4nc(Nc5ccnn5C)ncc4C)cn3C2=O)c1 [Example 8-P2, (R)-N-((S)-1-(3-Fluoro-5-methoxyphenyl)-2-hydroxyethyl)-2-(6-(5-methyl-2-((1-methyl-1H-pyrazol-5-yl)amino)pyrimidin-4-yl)-3-oxo-1H-pyrrolo[1,2-c]imidazol-2(3H)-yl)propanamide]
948 | COc1cc(F)cc([C@@H](CO)NC(=O)[C@H](C)N2CCn3cc(-c4nc(Nc5ccnn5C)ncc4C)cc3C2=O)c1 [Example 12-P1, (S)-N-((S)-1-(3-Fluoro-5-methoxyphenyl)-2-hydroxyethyl)-2-(7-(5-methyl-2-((1-methyl-1H-pyrazol-5-yl)amino)pyrimidin-4-yl)-1-oxo-3,4-dihydropyrrolo[1,2-a]pyrazin-2(1H)-yl)propanamide]
28.7 | COc1cc(F)cc([C@@H](CO)NC(=O)[C@@H](C)N2CCn3cc(-c4nc(N[C@@H](C)CO)ncc4Cl)cc3C2=O)c1 [Example 15, (R)-2-(7-(5-Chloro-2-(((S)-1-hydroxypropan-2-yl)amino)pyrimidin-4-yl)-1-oxo-3,4-dihydropyrrolo[1,2-a]pyrazin-2(1H)-yl)-N-((S)-1-(3-fluoro-5-methoxyphenyl)-2-hydroxyethyl)propanamide]
